Read-outs that look alike come from different tables or passages of the source.
Test: Single dose, open-label food effect pharmacokinetic trial of oral capsules in healthy subjects
Format: in vivo, human
Details: for bioavailability / Tmax: human, plasma, po; for bioavailability: healthy subjects; for Tmax: oral administration
Experimental: A single centre, single dose, open-label trial in healthy subjects was conducted. Study drug treatments were as follows: • Treatment A: Compound No. 1, in capsule form (25-400 mg) administered without food; • Treatment B: Compound No. 1, in capsule form (400-800 mg) administered with a normal fat meal; • Treatment C: Compound No. 1, in capsule form (400-1600 mg) administered with a high-fat meal.
In treatment A, subjects fasted overnight with water permitted up to one hour before dosing. One or more 25 mg or 100 mg capsules of Compound No. 1 were administered with 240 mL room temperature water. Subjects continued to fast for approximately 4 hours until lunch. All meals and snacks provided during the study were low fat and standardized. Additional water was allowed ad lib but there was no caffeine, smoking or alcohol and no vigorous exercise.
In treatments B and C, subjects consumed breakfast the day of the study. Breakfast commenced approximately 30 minutes prior to dosing with dosing occurring within 10 minutes after finishing the meal. One or more 25 mg or 100 mg capsules containing Compound No. 1 were administered to the subjects with 240 mL room temperature water. After dosing, subjects consumed no food until lunch and otherwise followed the same protocol as in treatment A.
In treatment B, a normal fat meal consisted of: toast with 1 pat of butter; a banana; 2% milk; apple juice; and Honey Nut Cheerios®. In treatment C, a high fat meal consisted of: 2 slices of buttered toast, 2 eggs fried in butter, 2 slices of bacon, 4 oz hash brown potatoes and 8 oz of whole milk.
Subjects received one or two doses. There was a washout period of at least 14 days between study drug administrations in those subjects dosed more than once. […] The actual dosing and sample times were recorded on a Case Report Form. At least 15 blood samples were collected during the period from pre-dose through 48 hours post-dose; in most subjects, additional samples were obtained at 60, 72, 120, 168 and 336 hours post-dose. Concentrations of Compound No. 1 were determined in plasma by BASi Northwest Laboratories Inc. (McMinnville, Oreg.) by LC-MS/MS. The lower limit of quantitation for Compound No. 1 was 0.05 ng/mL. Sample values below the lower limit of quantitation were reported as “<0.05 ng/mL”.
Pharmacokinetic parameters were obtained using compartmental methods. Relative exposure was quantified through the term relative bioavailability. In that none of the subjects received an intravenous dose of Compound No. 1, absolute bioavailability could not be determined. […] There were no protocol deviations that confounded the pharmacokinetic analyses.
Statistical analyses were performed using NONMEM version 5. Study results were not corrected for drug potency.

bioavailability, normal fat meal vs high fat meal (individual plasma concentrations, FIGS. 3 and 4) (400 mg and 800 mg dosage): increased bioavailability
decrease of bioavailability (fasting compared to a normal fat meal): 32%
increase of bioavailability of capsules (high fat meal compared to a normal fat meal): 460%
bioavailability (typical value, read-out: Relative bioavailability, 25-mg capsules (relative to 100-mg capsules)): 148%
Tmax (subjects fasted): < 2 h
Tmax (subjects fed a high fat meal): 4 to 5 h
Tmax (subjects fed a normal fat meal): 2 to 5 h
bioavailability (oral capsules, typical value of compartmental NONMEM analysis, read-out: Relative bioavailability, Fasted (relative to normal-fat meal)): 68.2%
Structure (SMILES): O=C(CC(c1ccccc1)c1ccccc1)N1CCN(C(c2ccccc2)c2ccccc2)CC1 [Compound No. 1, 1-(3,3-diphenylpropionyl)-4-benzhydryl piperazine]

Reference: patent US8362021B2, “Method for increasing the bioavailability of benzhydryl piperazine containing compounds” (Zalicus Pharmaceuticals Ltd., priority 2006, dated 2013)
